{
  "source": "patent US8598225B2",
  "about": "“Use of L-butylphthalide in the manufacture of medicaments for treatment of cerebral infarct” (CSPC Zhongqi Pharmaceutical Technology (Shijiazhuang) Co., …, priority 2003, dated 2013)",
  "key": {"[1]": {"test_system": "transient focal cerebral ischemic model (tMCAO)", "test": "Cerebral infarct volume of tMCAO rats (2 h middle cerebral artery occlusion, 24 h reperfusion, TTC staining)", "assay_type": "in vivo, rat", "details": "15 min after ischemia; for effect on infarct volume (in words): oral, l-NBP and d-NBP 20 and 40 mg/kg, dl-NBP 40 and 80 mg/kg, vs. vehicle; for reduction of infarct volume vs. vehicle group: tMCAO rats, p<0.001"}, "[2]": {"test_system": "acute ischemic cerebral stroke", "details": "administration group; 192 cases multi centered, random, double blinded, placebo control (placebo 41.0%); cited from earlier work"}, "[3]": {"test_system": "transient focal cerebral ischemic model (tMCAO)", "test": "Neurological behavioral evaluation of tMCAO rats (score 0-4)", "details": "for improvement of neurological symptoms (in words): oral, d-NBP 20 and 40 mg/kg, dl-NBP 40 and 80 mg/kg, vs. vehicle; for mean neurological score: 15 min after ischemia, scored at 24 h, vehicle 2.6±0.3", "method": "Male Wistar rats weighed 280-320 g were used, with each 5 rats kept in one cage. Animals were allowed free access to food and water at room temperature controlled at 23° C. The rats were anesthetized with 40 mg/kg of sodium pentobarbital. Under the surgical microscope, a midline neck skin incision was make to expose the right common cartotid artery, and the internal carotid artery (ICA) and external carotid artery (ECA) were then separated free from surrounding nerves and fascia, and the anastomotic branch was ligated. The ECA were ligated and cut, pulled to be straight and in line with ICA. A nylon suture with rounded tip and the diameter of 0.28 mm (coated with poly-L-lysine) was introduced from ECA into the lumen of the ICA for about 20 mm, advancing endocranially to the starting point of middle cerebral artery.\nAfter 2 h of ischemia, the nylon suture was carefully withdrawn, and the ECA was ligated at the site of opening. The rats were then sutured and placed back into the cage, and allowed to reperfuse for 24 h. Room temperature throughout the operation was kept at 24-25° C. The rats were placed on the heating plate of 37° C. to maintain the body temperature throughout the operation. The administration was performed 15 minutes after ischemia.\nRats were divided into eight groups with 10 rats in each group. Group 1 was vehicle control with 1 ml/kg of vegetable oil; groups 2) and 3) were 40 and 80 mg/kg of dl-NBP; groups 4) and 5) were 20 and 40 mg/kg of d-NBP; groups 6) and 7) were 20 and 40 mg/kg of l-NBP; and group 8 was 0.1 mg/kg of MK801. Animals in groups 1-7 were orally administered, and animals in group 8 were intraperitoneally administered.\nNeurological behavioral observation was conducted after 24 h of ischemia. Rats were lifted up by tail 1 inch away from the ground, and the conditions of both forelimbs were observed; both shoulders were pushed to observe if there was any difference between the resistances by both sides; the rats were placed down to the ground and their walking conditions were observed. Scores were given in accordance with the following criteria. • 0: strong forelimbs, symmetrically stretching towards the ground; identical resistance of both shoulders, and normal walk. • 1: contralateral shoulder flexion, forelimb flexion; identical resistance of both shoulders, and normal walk. • 2: contralateral shoulder flexion, forelimb flexion; decreased resistance of contralateral shoulder to push; and normal walk. • 3: contralateral shoulder flexion, forelimb flexion; decreased resistance of contralateral shoulder to push; and circling when walking • 4: contralateral shoulder flexion, forelimb flexion; and unable to autonomously move. The higher the score is, the more severe the behavioral disorder of the animal is.\nThe results were expressed as mean±standard error. Neurological behavioral score and cerebral infarct volume were statistically analyzed using one-way ANOVA and the difference between groups using posthoc LSD test. Result was considered to show a significant difference when p<0.05."}, "micro-circulation": {"test_system": "micro-circulation", "details": "previous studies; cited from earlier work"}},
  "note": "“Also recorded” adds a separate entry of the source.",
  "data": [
    {"smiles": "CCCCC1OC(=O)c2ccccc21", "note": "(racemic) [dl-NBP, racemic butylphthalide]", "values": [
      {"measurement": "effect on infarct volume (in words)", "setting": "[1]", "value": "no significant effect; also recorded: no reduction effect"},
      {"measurement": "total effective rate", "setting": "[2]", "value": 70.7, "unit": "%"},
      {"measurement": "improvement of neurological symptoms (in words)", "setting": "[3]", "value": "no significant improvement"}
    ]},
    {"smiles": "C[C@]12N[C@H](Cc3ccccc31)c1ccccc12", "note": "[MK801]", "values": [
      {"measurement": "reduction of infarct volume vs. vehicle group", "setting": "[1]; 0.1 mg/kg intraperitoneal", "value": 81.8, "unit": "%"},
      {"measurement": "mean neurological score", "setting": "[3]; 0.1 mg/kg intraperitoneal, p<0.001", "value": 0.8},
      {"measurement": "adverse behavioral signs in treated animals", "setting": "[3]; 0.1 mg/kg intraperitoneal, tMCAO rats", "value": "the limbs were weak, and staggered when sprawling, ataxia occurred, and unilaterally circled"}
    ]},
    {"smiles": "CCCC[C@H]1OC(=O)c2ccccc21", "note": "[d-NBP, dextro-butylphthalide]", "values": [
      {"measurement": "effect on infarct volume (in words)", "setting": "[1]", "value": "no significant effect"},
      {"measurement": "cerebral protective and micro-circulation improving effect (in words)", "setting": "micro-circulation", "value": "no such effect"},
      {"measurement": "improvement of neurological symptoms (in words)", "setting": "[3]", "value": "no significant improvement"}
    ]},
    {"smiles": "CCCC[C@@H]1OC(=O)c2ccccc21", "note": "[l-NBP, L-n-butylphthalide]", "values": [
      {"measurement": "reduction of infarct volume vs. vehicle group", "setting": "[1]; 40 mg/kg oral, 24 h reperfusion", "value": 80.4, "unit": "%"},
      {"measurement": "effect on infarct volume (in words)", "setting": "[1]", "value": "significantly reduced dose-dependently; also recorded: very significantly and dose dependently reduced"},
      {"measurement": "cerebral protective and micro-circulation improving effect (in words)", "setting": "micro-circulation", "value": "also has cerebral protective effect and micro-circulation improving effect"},
      {"measurement": "mean neurological score", "setting": "[3]; 20 mg/kg oral, p<0.01", "value": 1.4},
      {"measurement": "mean neurological score", "setting": "[3]; 40 mg/kg oral, p<0.001", "value": 1.1}
    ]}
  ]
}
